Measured values as given in PMC8350397, “GSK137, a potent small-molecule BCL6 inhibitor with in vivo activity, suppresses antibody responses in mice” (The Journal of Biological Chemistry, 2021).
Entries after “also recorded” stand apart in the source; their conditions may differ.

Legend:
Format in all cases: cell-based
[1] = molecular target: T1, full-length human BCL6 binding to BCL6-binding domain of SMRT (residues 1292-1500) (Homo sapiens, UniProt P41182); assay: NanoBRET cell assay in HEK293-WT cells
T1 construct: Nano Luciferase fused at the N-terminus of full-length human BCL6; host or cells: HEK293-WT (ATCC CRL-1573)
Text: Plasmids encoding Nano Luciferase fused at the N-terminus of full-length human BCL6 and encoding Halo tag fused at the C-terminus of the BCL6 binding domain (1292-1500) of human SMRT co-repressor were generated under contract by Promega Corporation. HEK293-WT cells were from ATCC (CRL-1573). Fugene HD transfection reagent (catalogue number E2311), HaloTag NanoBRET 618 ligand (catalogue number G980B) and NanoBRET Nano-Glo substrate (catalogue number N157B) were from Promega Ltd.
Assay day 1 (Transient Transfection): 8 x 10^6 HEK293-WT cells per T75 flask (one per compound plate), were transfected with mix comprising 10 µg BCL6 DNA, 10 µg domain SMRT DNA, 1 mL Opti-MEM and 60 µL FuGene (added last), incubating at room temperature for 10 mins prior to addition to flask. The flask was incubated for 20-24 hours at 37 °C and 5% CO2. Assay day 2 (Cell plating): Cells were detached, spun and re-suspended at 2 x 10^5 cells/mL, HaloTag NanoBRET 618 ligand at 1:1000 dilution was added and plated at 40 µL / well with test compounds prepared as above, a duplicate plate without HaloTag ligand was used as background control. The plates were incubated at 37 °C and 5% CO2 overnight (18-24 hours). Assay day 3 (Assay): 1:1000 NanoGlo substrate final was added to all wells, shaken for 30 seconds and luminescence then read on an Envision plate reader. […]

ULA cells [2] = assay: Viability and cumulative cell number analysis, ULA; conditions: 14 days; for cell viability: GSK137 0.1-10 μM, BI3802 0.1 and 1 μM
Procedure: (§1) Farage cells were cultured in RPMI1640 (1×) + 20% heat-inactivated fetal bovine serum (FBS), ULA in Iscove's modified Dulbecco's medium + 20% FBS, whereas Karpas422 and VAL were cultured in RPMI1640 + 20% heat-inactivated FBS, all with the addition of 1% Glutamax and 1% sodium pyruvate.
(§2) Farage, ULA, Karpas422, and VAL cells were seeded into T25 tissue culture flasks in a total volume of 7 mL per flask at densities of 5 x10^4, 7 x10^4, 5 x10^4, and 4 x10^4 cells/mL, respectively and incubated overnight at 37 °C and 5% CO2. Cells were then treated with a 3-point titration of GSK137 (0.1 µM, 1 µM, and 10 µM) throughout a 14-day time course. Treatments with multiple concentrations of BI3802 were also included for comparison (Farage and Karpas422 cells were treated with 0.01 µM, 0.1 µM, and 1 µM BI3802; ULA cells were treated with 0.1 µM and 1 µM BI3802; VAL cells were treated with 0.1 µM, 1 µM, and 10 µM BI3802). Viability (trypan blue exlcusion) and cumulative cell number were measured on a Vi-CELL XR 2.03 (Beckman Coulter, Brea, CA, USA) on day of seeding and on days 3, 6, 10, and 14.

[3] = system: Farage, Karpas422 and VAL cells; assay: Viability and cumulative cell number analysis, Farage, Karpas422, VAL; conditions: 14 days
Procedure: as §1, §2

ULA cells [4] = assay: Cell cycle analysis, ULA; conditions: GSK137 0.1-10 μM; for fraction of cells in G1: BI3802 1 μM, 2 or 6 days; for dead or dying cells: day 6, BI3802 1 μM
Procedure: Farage, ULA, KARPAS-422, and VAL cells were seeded into 6-well tissue culture dishes in a total volume of 6 mL at densities of 6.25 x10^3, 7.81 x10^3, 6.25 x10^3, and 1.56 x10^3 cells/mL, respectively and incubated overnight at 37 °C and 5% CO2. Cells were then treated with 0.1 µM, 1 µM, or 10 µM GSK137 or 1 µM BI3802 for 2 or 6 days at 37 °C and 5% CO2. Cell cycle analysis was performed using the Click-iT EdU Alexa Fluor 647 Flow Cytometry Assay Kit (Thermo Fisher Scientific, Waltham, MA, USA) following the manufacturer’s instructions, with volumes adjusted for a […] U-bottom plate, and with an approximately 1 hour treatment with 10 μM EdU. After EdU treatment, approximately 2x10^5 cells per well were transferred into a 96-well, non-tissue culture treated U-bottom plate and stained with 6.7µg/ml final FxCycle Violet Stain for 30 minutes incubation at room temperature. Cells were then analyzed on a flow cytometer (BD FACS Canto […] or LSR FortessaTM X-20 (Becton Dickinson, Franklin Lakes, NJ, USA)) with compensation each day using one cell line and data analyzed using FlowJo software (version 10.3). Percentages of cells in each phase of the cell cycle were then averaged across technical replicates.

[5] = system: BCL6 target genes in Farage cells; assay: Semiquantitative real-time PCR of ten BCL6 target genes; conditions: 72-h treatment
Procedure: Farage cells were plated at a density of 3000 cells/100 µl in 96-well plates, incubated overnight at 37 °C then treated with a 10-point, 1:3-fold serial dilution of compound at a top concentration of 20 µM for GSK137 or 10 µM BI3802. Cells were returned to the incubator for 3 days prior to harvesting for RNA isolation. RNA was isolated using the TurboCapture 96 Kit (Qiagen, Hilden, Germany; # 72251), cDNA generated using the High Capacity cDNA Reverse Transcription kit (ABI, Foster City, CA, USA; #4374966) both following the manufacturer’s instructions. qPCR was performed on a ViiA7 real-time PCR machine (Life Technologies, Carlsbad, CA, USA) using the Fast TaqMan ΔΔCt method. Quadruplicate readings were measured for each biological replicate sample. Individual TaqMan assays are listed (Table S4). Expression data were analyzed using the Comparative Ct^(2–ΔΔ^Ct) method (42) The Ct values of the treated samples are compared to vehicle treated samples and normalized to GAPDH. Changes are presented as an average RQ (termed “relative expression”). RQ values between 0 and 1 correspond to a downregulation of gene expression, RQ values greater than 1 correspond to upregulation.

Row | SMILES | activity in cellular assay compared with reported potency ([1]; cellular) | cumulative cell number (ULA cells [2]) | cell viability (ULA cells [2]) | cumulative cell number [3] | fraction of cells in G1 (ULA cells [4]) | dead or dying cells (ULA cells [4]) | expression changes in a panel of 10 BCL6 target genes [5] | IC50 ([1]; live cells, full-length human BCL6 / SMRT BBD, read-out: pIC50 Human NanoBret cell (converted)) [nM] | cell viability ([3]; GSK137 0.1-10 μM)
1 | CNC(=O)COc1cc2cc(Nc3nc(N4C[C@H](C)C[C@H](C)C4)ncc3Cl)ccc2n(C)c1=O [BI3802, reference compound] | consistent with the previously reported potency | most sensitive | only appreciably reduced viability in ULA at the highest concentration used | showed some response | increased fraction of cells in G1 at day 2 | ~40% | dose-dependent changes to six of the ten genes | – | –
2 | Cc1ncccc1[C@H]1C[C@@H](c2cccc3nc(N)ccc23)Nc2c(F)cnn21 [GSK137, 5-((5S,7R)-3-Fluoro-7-(2-methylpyridin-3-yl)-4,5,6,7-tetrahydropyrazolo[1,5-a]pyrimidin-5-yl)quinolin-2-amine] | – | – | no major change in cell viability; also recorded: only minimal reduction in viability | no detectable change | modest dose and time-dependent G1 cell cycle arrest | no increase in dead or dying cells | clear increase only in SOCS2 with some increase in CD69 | 50.1 | no major change in cell viability; also recorded: no detectable change
